# Measurements from patent US20260256751A1, “COMBINATION OF BETA-2-ADRENERGIC RECEPTOR AGONISTS AND GLP-1 RECEPTOR AGONISTS FOR USE IN TREATING HYPERGLYCAEMIA” (ATROGI AB, priority 2023, published 2026).
# Key:
# [1] = tested on: differentiated L6-myotubes; test: Glucose uptake screen (Biological example 1 of WO 2019/053427); assay type: cell-based; details: compound at 10 μM, activity relative to isoproterenol at 10 μM, read-out: Biological example 1 of WO 2019/053427 (GU)
# Procedure, shortened: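 Uptake was read out as ^3H-2-deoxyglucose (50 nM, 10 min) radioactivity in NaOH lysates. Beforehand, overnight-starved, differentiated L6 myotubes received compound at 1×10^−5 M with ICI-118551 present for 1 h 40 min, followed by fresh agonist for a further 20 min in glucose-free medium.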
# [2] = tested on: differentiated L6-myotubes; test: cAMP production relative to isoprenaline (Biological example 2 of WO 2019/053427); assay type: cell-based; details: 0.25 h, compound at 10 μM, activity relative to isoproterenol at 10 μM
# Procedure, shortened: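 Values are cAMP levels relative to isoprenaline at equal concentration (final 1×10^−5 M for both). Stimulation lasted 15 min in differentiated L6 myotubes, using HBSS buffer (pH 7.4) containing 1 mM IBMX, 5 mM HEPES and 1% BSA.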
Compound,Emax at 10 µM [1],Emax at 10 µM [2]
"O[C@@H](CNCCC[C@H]1CC[C@@H](OCc2ccccc2)CC1)c1cncc(F)c1 [Compound 275, (R)-1-(5-fluoro-3-pyridyl)-2-{3-[(1s,4R)-4-(benzyloxy)cyclohexyl]pro-pylamino}-1-ethanol]",50 to 75%,< 25%
"O[C@@H](CNCCC[C@H]1CC[C@H](OCc2ccccc2)CC1)c1cncc(F)c1 [Compound 276, (R)-1-(5-fluoro-3-pyridyl)-2-{3-[(1r,4S)-4-(benzyloxy)cyclohexyl]pro-pylamino}-1-ethanol]",25 to 50%,< 25%
"O[C@@H](CNCCC[C@H]1CC[C@@H](OCc2ccccc2)CC1)c1cccc(F)c1 [Compound 277, (R)-1-(m-fluorophenyl)-2-{3-[(1s,4R)-4-(benzyloxy)cyclohexyl]pro-pylamino}-1-ethanol]",25 to 50%,< 25%
"O[C@@H](CNCCC[C@H]1CC[C@H](OCc2ccccc2)CC1)c1cccc(F)c1 [Compound 278, (R)-1-(m-fluoropheny)-2-{3-[(1r,4S)-4-(benzyloxy)cyclohexyl]pro-pylamino}-1-ethanol]",25 to 50%,< 25%
"CC(C)(NC[C@H](O)c1cccc(F)c1)[C@H]1CC[C@H](OCc2ccccc2)CC1 [Compound 279, (R)-1-(m-fluorophenyl)-2-{1-methyl-1-[(1r,4R)-4-(benzyloxy)cyclohexyl]eth-ylamino}-1-ethanol]",50 to 75%,< 25%
"CC(C)(NC[C@H](O)c1cccc(F)c1)[C@H]1CC[C@@H](OCc2ccccc2)CC1 [Compound 280, (R)-1-(m-fluorophenyl)-2-{1-methyl-1-[(1s,4S)-4-(benzyloxy)cyclohexyl]eth-ylamino}-1-ethanol]",> 75%,< 25%
"CC(C)(NC[C@H](O)c1cncc(F)c1)[C@H]1CC[C@H](OCc2ccccc2)CC1 [Compound 281, (R)-1-(5-fluoro-3-pyridyl)-2-{1-methyl-1-[(1r,4R)-4-(benzyloxy)cyclohexyl]eth-ylamino}-1-ethanol]",50 to 75%,< 25%
"CC(C)(NC[C@H](O)c1cncc(F)c1)[C@H]1CC[C@@H](OCc2ccccc2)CC1 [Compound 282, (R)-1-(5-fluoro-3-pyridyl)-2-{1-methyl-1-[(1s,4S)-4-(benzyloxy)cylcohexyl]eth-ylamino}-1-ethanol]",50 to 75%,< 25%
"CC(C)(NC[C@H](O)c1cccc(F)c1)[C@H]1CC[C@H](O)CC1 [Compound 283, (R)-1-(m-fluorophenyl)-2-{1-methyl-1-[(1r,4R)-4-hydroxycyclohexyl]ethyl-amino}-1-ethanol]",50 to 75%,< 25%
"CC(C)(NC[C@H](O)c1cccc(F)c1)[C@H]1CC[C@@H](O)CC1 [Compound 284, (R)-1-(m-fluorophenyl)-2-{1-methyl-1-[(1s,4S)-4-hydroxycyclohexyl]ethyl-amino}-1-ethanol]",50 to 75%,< 25%
"CC(C)(NC[C@H](O)c1cncc(F)c1)[C@H]1CC[C@H](O)CC1 [Compound 285, (R)-1-(5-fluoro-3-pyridyl)-2-{1-methyl-1-[(1r,4R)-4-hydroxycyclohexyl]ethyl-amino}-1-ethanol]",50 to 75%,< 25%
"CC(C)(NC[C@H](O)c1cncc(F)c1)[C@H]1CC[C@@H](O)CC1 [Compound 286, (R)-1-(5-fluoro-3-pyridyl)-2-{1-methyl-1-[(1s,4S)-4-hydroxycyclohexyl]ethyl-amino}-1-ethanol]",25 to 50%,< 25%
"O[C@@H](CNCC[C@H]1CC[C@@H](OCc2ccccc2)CC1)c1cccc(F)c1 [Compound 287, (R)-1-(m-fluorophenyl)-2-{2-[(1s,4S)-4-(benzyloxy)cyclohexyl]eth-ylamino}-1-ethanol]",50 to 75%,< 25%
"O[C@@H](CNCC[C@H]1CC[C@H](OCc2ccccc2)CC1)c1cccc(F)c1 [Compound 288, (R)-1-(m-fluorophenyl)-2-{2-[(1r,4R)-4-(benzyloxy)cyclohexyl]eth-ylamino}-1-ethanol]",25 to 50%,< 25%
"CC(C)(CC[C@H]1CC[C@H](O)CC1)NC[C@H](O)c1cncc(F)c1 [Compound 289, (R)-2-{1,1-dimethyl-3-[(1r,4S)-4-hydroxycyclohexyl]propyl-amino}-1-(5-fluoro-3-pyridyl)-1-ethanol]",25 to 50%,< 25%
"CC(C)(CC[C@H]1CC[C@H](O)CC1)NC[C@H](O)c1cccc(F)c1 [Compound 290, (R)-2-{1,1-dimethyl-3-[(1r,4S)-4-hydroxycyclohexyl]propyl-amino}-1-(m-fluorophenyl)-1-ethanol]",25 to 50%,< 25%
"O[C@@H](CNCC[C@H]1CC[C@@H](OCc2ccccc2)CC1)c1cncc(F)c1 [Compound 291, (R)-1-(5-fluoro-3-pyridyl)-2-{2-[(1s,4S)-4-(benzyloxy)cyclohexyl]ethylamino}-1-ethanol]",50 to 75%,< 25%

Compound,Emax at 10 µM [1],Emax at 10 µM [2]
"O[C@@H](CNCC[C@H]1CC[C@H](OCc2ccccc2)CC1)c1cncc(F)c1 [Compound 292, (R)-1-(5-fluoro-3-pyridyl)-2-{2-[(1r,4R)-4-(benzyloxy)cyclohexyl]ethylamino}-1-ethanol]",< 25%,< 25%
"O[C@@H](CNCC[C@H]1CC[C@@H](O)CC1)c1cncc(F)c1 [Compound 293, (R)-1-(5-fluoro-3-pyridyl)-2-{2-[(1s,4S)-4-hydroxycyclohexyl]ethylamino}-1-ethanol]",25 to 50%,< 25%
"O[C@@H](CNCC[C@H]1CC[C@H](O)CC1)c1cncc(F)c1 [Compound 294, (R)-1-(5-fluoro-3-pyridyl)-2-{2-[(1r,4R)-4-hydroxycyclohexyl]ethylamino}-1-ethanol]",25 to 50%,< 25%
"CC(C)(CC[C@H]1CC[C@@H](O)CC1)NC[C@H](O)c1cccc(F)c1 [Compound 295, (R)-2-{1,1-dimethyl-3-[(1s,4R)-4-hydroxycyclohexyl]propylamino}-1-(m-fluorophenyl)-1-ethanol]",> 75%,< 25%
"CC(C)(CC[C@H]1CC[C@@H](O)CC1)NC[C@H](O)c1cncc(F)c1 [Compound 296, (R)-2-{1,1-dimethyl-3-[(1s,4R)-4-hydroxycyclohexyl]propylamino}-1-(5-fluoro-3-pyridyl)-1-ethanol]",> 75%,< 25%
"O[C@@H](CNCC[C@H]1CC[C@@H](O)CC1)c1cccc(F)c1 [Compound 297, (R)-1-(m-fluorophenyl)-2-{2-[(1s,4S)-4-hydroxycyclohexyl]ethylamino}-1-ethanol]",50 to 75%,< 25%
"O[C@@H](CNCC[C@H]1CC[C@H](O)CC1)c1cccc(F)c1 [Compound 298, (R)-1-(m-fluorophenyl)-2-{2-[(1r,4R)-4-hydroxycyclohexyl]ethylamino}-1-ethanol]",25 to 50%,< 25%
"CC(C)(C[C@H]1CC[C@H](O)CC1)NC[C@H](O)c1cncc(F)c1 [Compound 299, (R)-2-{1,1-dimethyl-2-[(1r,4R)-4-hydroxycyclohexyl]ethylamino}-1-(5-fluoro-3-pyridyl)-1-ethanol]",50 to 75%,< 25%
"CC(C)(C[C@H]1CC[C@H](O)CC1)NC[C@H](O)c1cccc(F)c1 [Compound 300, (R)-2-{1,1-dimethyl-2-[(1r,4R)-4-hydroxycyclohexyl]ethylamino}-1-(m-fluorophenyl)-1-ethanol]",> 75%,< 25%
"CC(C)(C[C@H]1CC[C@@H](O)CC1)NC[C@H](O)c1cncc(F)c1 [Compound 301, (R)-2-{1,1-dimethyl-2-[(1s,4S)-4-hydroxycyclohexyl]ethylamino}-1-(5-fluoro-3-pyridyl)-1-ethanol]",> 75%,< 25%
"CC(C)(C[C@H]1CC[C@@H](O)CC1)NC[C@H](O)c1cccc(F)c1 [Compound 302, (R)-2-{1,1-dimethyl-2-[(1s,4S)-4-hydroxycyclohexyl]ethylamino}-1-(m-fluorophenyl)-1-ethanol]",50 to 75%,< 25%
"O[C@@H](CNCCC[C@H]1CC[C@H](O)CC1)c1cccc(F)c1 [Compound 303, (R)-1-(m-fluorophenyl)-2-{3-[(1r,4S)-4-hydroxycyclohexyl]propylamino}-1-ethanol]",50 to 75%,< 25%
"O[C@@H](CNCCC[C@H]1CC[C@@H](O)CC1)c1cncc(F)c1 [Compound 304, (R)-1-(5-fluoro-3-pyridyl)-2-{3-[(1s,4R)-4-hydroxycyclohexyl]propylamino}-1-ethanol]",50 to 75%,< 25%
"O[C@@H](CNCCC[C@H]1CC[C@H](O)CC1)c1cncc(F)c1 [Compound 305, (R)-1-(5-fluoro-3-pyridyl)-2-{3-[(1r,4S)-4-hydroxycyclohexyl]propylamino}-1-ethanol]",25 to 50%,< 25%
"O[C@@H](CNCCC[C@H]1CC[C@@H](O)CC1)c1cccc(F)c1 [Compound 306, (R)-1-(m-fluorophenyl)-2-{3-[(1s,4R)-4-hydroxycyclohexyl]propylamino}-1-ethanol]",25 to 50%,< 25%
"CC(=O)N[C@H]1CC[C@@H](CNC[C@H](O)c2cccc(F)c2)CC1 [Compound 307, N-[(1S,4s)-4-{[(R)-2-(m-fluorophenyl)-2-hydroxyethylamino]methyl}cyclohexyl]acetamide]",50 to 75%,< 25%
